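Tested at 5 concentrations; 48 h exposure; 96-well plates; endpoints linearly interpolated, else capped at highest concentration. At the GI50, growth is halved. TGI is the concentration that stops growth completely.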
Assays:
Assay in all cases: NCI tumour cell line growth inhibition, 48 h
CAKI-1 renal = system: CAKI-1 renal
HL-60(TB) leukemia = system: HL-60(TB) leukemia
OVCAR-8 ovarian = system: OVCAR-8 ovarian
SK-MEL-2 melanoma = system: SK-MEL-2 melanoma
SK-OV-3 ovarian = system: SK-OV-3 ovarian
SN12C renal = system: SN12C renal
SNB-19 CNS = system: SNB-19 CNS
SNB-78 CNS = system: SNB-78 CNS
SR leukemia = system: SR leukemia
MDA-N = system: MDA-N

SMILES	TGI (CAKI-1 renal) [µM]	TGI (HL-60(TB) leukemia) [µM]	TGI (OVCAR-8 ovarian) [µM]	TGI (SK-MEL-2 melanoma) [µM]	TGI (SK-OV-3 ovarian) [µM]	TGI (SN12C renal) [µM]	TGI (SNB-19 CNS) [µM]	TGI (SNB-78 CNS) [µM]	TGI (SR leukemia) [µM]	GI50 (CAKI-1 renal) [µM]	GI50 (HL-60(TB) leukemia) [µM]	GI50 (OVCAR-8 ovarian) [µM]	GI50 (SK-MEL-2 melanoma) [µM]	GI50 (SK-OV-3 ovarian) [µM]	GI50 (SN12C renal) [µM]	GI50 (SNB-19 CNS) [µM]	GI50 (SNB-78 CNS) [µM]	GI50 (SR leukemia) [µM]	TGI (MDA-N) [µM]
CC1=C(C(=O)Nc2ccc(Cl)c(C(=O)OC(C)C)c2)SCCO1	> 100	51	> 100	75.4	> 81.1	> 100	> 77.4	> 100	–	–	–	–	–	–	–	–	–	–	–
CCOc1ccc(NC(=O)CC2C(=O)Nc3ccccc3S2(=O)=O)cc1 (centres undefined)	–	> 100	> 100	> 100	–	> 100	> 100	> 100	> 100	–	–	–	–	–	–	–	–	–	–
Cn1nc(-c2ccccc2)c2c(/C=C/c3ccccc3)onc2c1=O	> 100	> 100	> 100	> 100	> 100	> 100	> 100	> 100	> 100	–	–	–	–	–	–	–	–	–	–
CC1(c2ccc(Cl)cc2)C2C(=O)NC(=O)C1C(=O)NC2=O (centres undefined)	> 100	> 100	> 100	> 100	> 100	> 100	> 100	> 100	–	–	–	–	–	–	–	–	–	–	–
Brc1ccc2ns[s+]c2c1	> 100	> 100	> 100	> 100	> 100	> 100	> 100	> 31.6	> 100	–	–	–	–	–	–	–	–	–	–
CC(=O)OC1COC(n2c(=S)n(-c3ccccc3)c(=O)c3ccccc32)C(OC(C)=O)C1OC(C)=O (centres undefined)	> 100	> 100	> 100	> 100	> 100	> 100	> 100	> 100	–	–	–	–	–	–	–	–	–	–	–
O=C(Nc1nc2c(ncn2C2OC(CO)C(O)C2O)c(=O)[nH]1)c1ccccc1 (centres undefined)	> 100	> 100	> 100	> 100	> 100	> 100	–	> 100	> 100	–	–	–	–	–	–	–	–	–	–
CCCCCCC[CH2][Sn]1([CH2]CCCCCCC)[O]C(=O)c2cccnc2[O]1	> 100	> 100	> 100	> 100	> 100	> 100	> 100	> 100	> 100	> 100	> 100	> 100	> 100	> 100	> 100	> 100	> 100	> 100	–
c1ccc2c(c1)cc1n2CC2CN=NC12 (centres undefined)	> 100	> 100	> 100	> 100	> 100	> 100	> 100	> 100	> 100	–	–	–	–	–	–	–	–	–	–
CC(SC(=O)Nc1ccc(N=Nc2ccccc2)cc1)C(=O)O (centres undefined)	> 100	> 100	> 100	> 100	–	> 100	> 100	> 100	> 100	–	–	–	–	–	–	–	–	–	–
CSC(=Nc1ccccc1)/N=C(\SCc1ccccc1)N(C)C	2.79	> 100	3.22	3.44	6.69	2.42	2.68	4.16	> 100	–	–	–	–	–	–	–	–	–	2.03
COc1cc(CCc2ccc(N)cc2)cc(OC)c1OC	> 100	> 92.5	> 100	82.6	> 100	> 100	> 100	85	–	–	–	–	–	–	–	–	–	–	–
CN(c1ccccc1)c1c(Cl)c(=O)oc2c1ccc1occc12	> 100	> 100	> 100	> 100	–	> 100	> 100	> 100	> 100	–	–	–	–	–	–	–	–	–	–
CC(=O)NNc1nc(C)c(C(=O)NNC(=O)C(=O)Nc2ccc(Cl)cc2Cl)s1	75.5	99.2	> 100	> 100	> 100	> 100	> 100	> 100	–	–	–	–	–	–	–	–	–	–	–
CC1=C(C(=O)Nc2cc(F)c(F)cc2F)C(c2ccc([N+](=O)[O-])cc2)C(C(=O)Nc2cc(F)c(F)cc2F)=C(C)N1	> 100	35.7	> 100	> 100	> 100	> 100	> 100	> 100	–	–	–	–	–	–	–	–	–	–	–
